This note sets out measurements from ChEMBL document CHEMBL1137498, “Design, synthesis and biological evaluation of novel lipoamino acid-based glycolipids for oral drug delivery” (Bioorg Med Chem, 2007).

Data set [1] concerns Escherichia coli. The data set is described as follows: Antibacterial activity against Escherichia coli. The class given is functional.
The subject of data set [2] is Klebsiella aerogenes. Briefly: Antibacterial activity against Klebsiella aerogenes. The class given is functional.
Data set [3] deals with Bacillus subtilis. The data set is described as follows: Antibacterial activity against Bacillus subtilis. The class given is functional.
Data set [4] is described as follows: Apparent permeability across Caco-2 cells. The data set is classed as ADME, cell-based. As to conditions: human.
In data set [5] the test system is Pseudomonas aeruginosa. Briefly: Antibacterial activity against Pseudomonas aeruginosa. The class given is functional.
Data set [6] relates to Staphylococcus aureus. Briefly: Antibacterial activity against Staphylococcus aureus. The class given is functional.

Structures are written as SMILES. ≈ marks a conversion by molar mass, not a printed value.

What is called MIC is the smallest concentration in the dilution series that meets the test's criterion for growth inhibition. In general, Papp refers to the rate of passage across a membrane or cell layer, normalised by area and donor concentration. `CCN1CCN(C(=O)N[C@@H](C(=O)N[C@@H]2C(=O)N3[C@@H]2SC(C)(C)[C@@H]3C(=O)O)c2ccccc2)C(=O)C1=O` [PIPERACILLIN]: the minimum inhibitory concentration (MIC) in data set [1] worked out at 4 µg/mL (≈ 7.73 µM); in data set [2] it was 8 µg/mL (≈ 15.5 µM); in data set [3], 0.5 µg/mL (≈ 0.966 µM); in data set [5], 4 µg/mL (≈ 7.73 µM); in data set [6] it was 1 µg/mL (≈ 1.93 µM). Further, the Papp in data set [4] was 0.0325 ×10⁻⁶ cm/s.
